What was measured:
Settings in all cases: 72 h
[1] = tested on: HepG2; assay: relative viability EC50 (midpoint between 100% and the lowest measured viability); higher = less toxic
[2] = tested on: Calu-3; assay: as above
[3] = tested on: Vero E6; assay: as above
[4] = tested on: Caco-2; assay: as above
[5] = tested on: HepG2; assay: drug sensitivity score (DSS) for viability; higher = more toxic; extreme values may be limits of the assay
[6] = tested on: Calu-3; assay: as above
[7] = tested on: Vero E6; assay: as above
[8] = tested on: Caco-2; assay: as above
[9] = tested on: HepG2; assay: cell viability relative to DMSO; higher = less toxic
[10] = tested on: Calu-3; assay: as above
[11] = tested on: Vero E6; assay: as above
[12] = tested on: Caco-2; assay: as above
[13] = tested on: U2OS; assay: drug sensitivity score (DSS) for viability; higher = more toxic; extreme values may be limits of the assay
[14] = tested on: U2OS; assay: cell viability relative to DMSO; higher = less toxic
[15] = tested on: U2OS; assay: relative viability EC50 (midpoint between 100% and the lowest measured viability); higher = less toxic

C[C@H](CCC(=O)O)[C@H]1CC[C@H]2[C@@H]3CC[C@@H]4C[C@H](O)CC[C@]4(C)[C@H]3CC[C@]12C [lithocholic-acid]
relative viability EC50 [1]: > 10 µM
relative viability EC50 [2]: > 10 µM
relative viability EC50 [3]: > 10 µM
relative viability EC50 [4]: > 10 µM
drug sensitivity score [5]: 0
drug sensitivity score [6]: 0
drug sensitivity score [7]: 0
drug sensitivity score [8]: 0
cell viability ([9]; 1 nM): 102%
cell viability ([9]; 10 nM): 96.4%
cell viability ([9]; 100 nM): 108%
cell viability ([9]; 1000 nM): 90.2%
cell viability ([9]; 10000 nM): 111%
cell viability ([10]; 1 nM): 98.9%
cell viability ([10]; 10 nM): 91.2%
cell viability ([10]; 100 nM): 98.2%
cell viability ([10]; 1000 nM): 93.3%
cell viability ([10]; 10000 nM): 105%
cell viability ([11]; 1 nM): 102%
cell viability ([11]; 10 nM): 101%
cell viability ([11]; 100 nM): 102%
cell viability ([11]; 1000 nM): 101%
cell viability ([11]; 10000 nM): 98.7%
cell viability ([12]; 1 nM): 106%
cell viability ([12]; 10 nM): 96.9%
cell viability ([12]; 100 nM): 101%
cell viability ([12]; 1000 nM): 98%
cell viability ([12]; 10000 nM): 99%

CC[C@H](C)C(=O)O[C@H]1C[C@@H](C)C=C2C=C[C@H](C)[C@H](CC[C@@H]3C[C@@H](O)CC(=O)O3)[C@H]21 [lovastatin]
relative viability EC50 [1]: > 10 µM
relative viability EC50 [2]: > 10 µM
relative viability EC50 [3]: > 10 µM
relative viability EC50 [4]: > 10 µM
drug sensitivity score [5]: 0.1
drug sensitivity score [6]: 0.2
drug sensitivity score [13]: 2.8
drug sensitivity score [7]: 0
drug sensitivity score [8]: 0
cell viability ([9]; 1 nM): 91.2%
cell viability ([9]; 10 nM): 109%
cell viability ([9]; 100 nM): 96.4%
cell viability ([9]; 1000 nM): 92.3%
cell viability ([9]; 10000 nM): 88.7%
cell viability ([10]; 1 nM): 87.8%
cell viability ([10]; 10 nM): 106%
cell viability ([10]; 100 nM): 96.3%
cell viability ([10]; 1000 nM): 111%
cell viability ([10]; 10000 nM): 81.6%
cell viability ([14]; 1 nM): 94.1%
cell viability ([14]; 10 nM): 108%
cell viability ([14]; 100 nM): 96.2%
cell viability ([14]; 1000 nM): 96.6%
cell viability ([14]; 10000 nM): 55.4%
cell viability ([11]; 1 nM): 100%
cell viability ([11]; 10 nM): 100%
cell viability ([11]; 100 nM): 96.2%
cell viability ([11]; 1000 nM): 102%
cell viability ([11]; 10000 nM): 88.1%
cell viability ([12]; 1 nM): 92.2%
cell viability ([12]; 10 nM): 85.7%
cell viability ([12]; 100 nM): 84.2%
cell viability ([12]; 1000 nM): 106%
cell viability ([12]; 10000 nM): 101%

Cc1c(N(C)CS(=O)(=O)O)c(=O)n(-c2ccccc2)n1C [metamizole]
relative viability EC50 [1]: > 10 µM
relative viability EC50 [2]: > 10 µM
relative viability EC50 [3]: > 10 µM
relative viability EC50 [4]: > 10 µM
drug sensitivity score [5]: 0
drug sensitivity score [6]: 0
drug sensitivity score [7]: 0
drug sensitivity score [8]: 0
cell viability ([9]; 1 nM): 99.9%
cell viability ([9]; 10 nM): 109%
cell viability ([9]; 100 nM): 100%
cell viability ([9]; 1000 nM): 91.6%
cell viability ([9]; 10000 nM): 102%
cell viability ([10]; 1 nM): 106%
cell viability ([10]; 10 nM): 90.6%
cell viability ([10]; 100 nM): 102%
cell viability ([10]; 1000 nM): 95.7%
cell viability ([10]; 10000 nM): 91.1%
cell viability ([11]; 1 nM): 97.5%
cell viability ([11]; 10 nM): 97.1%
cell viability ([11]; 100 nM): 95.6%
cell viability ([11]; 1000 nM): 102%
cell viability ([11]; 10000 nM): 101%
cell viability ([12]; 1 nM): 98.5%
cell viability ([12]; 10 nM): 107%
cell viability ([12]; 100 nM): 101%
cell viability ([12]; 1000 nM): 104%
cell viability ([12]; 10000 nM): 104%

COC(=O)C1=C(C)NC(C)=C(C(=O)OC)C1c1ccccc1[N+](=O)[O-] [nifedipine]
relative viability EC50 [1]: > 10 µM
relative viability EC50 [2]: > 10 µM
relative viability EC50 [15]: > 10 µM
relative viability EC50 [3]: > 10 µM
relative viability EC50 [4]: > 10 µM
drug sensitivity score [5]: 0
drug sensitivity score [6]: 0
drug sensitivity score [13]: 0
drug sensitivity score [7]: 0
drug sensitivity score [8]: 1.3
cell viability ([9]; 1 nM): 95.7%
cell viability ([9]; 10 nM): 84.8%
cell viability ([9]; 100 nM): 96.8%
cell viability ([9]; 1000 nM): 117%
cell viability ([9]; 10000 nM): 102%
cell viability ([14]; 1 nM): 104%
cell viability ([14]; 10 nM): 102%
cell viability ([14]; 100 nM): 103%
cell viability ([14]; 1000 nM): 100%
cell viability ([14]; 10000 nM): 96.6%
cell viability ([11]; 1 nM): 99.5%
cell viability ([11]; 10 nM): 103%
cell viability ([11]; 100 nM): 106%
cell viability ([11]; 1000 nM): 101%
cell viability ([11]; 10000 nM): 94.9%
cell viability ([12]; 1 nM): 112%
cell viability ([12]; 10 nM): 100%
cell viability ([12]; 100 nM): 90.4%
cell viability ([12]; 1000 nM): 96.8%
cell viability ([12]; 10000 nM): 76.8%

Reference: the supplement of paper PMC13380429
